“And” between values parts separate entries of the source, which are not always exact repeats. Identical values can stand only once.
Test: molar heat capacity at constant pressure
Settings: 101.33 kPa, Vacuum adiabatic calorimetry

[Al+3].[Al+3].[Co+2].[O-2].[O-2].[O-2].[O-2] [aluminium cobalt oxide]
Settings | molar heat capacity at constant pressure
4.72 K, Crystal 2 | 0.13 J/K/mol
5 K, Crystal 2 | 0.187 J/K/mol
5.71 K, Crystal 2 | 0.32 J/K/mol
6 K, Crystal 2 | 0.323 J/K/mol
6.45 K, Crystal 2 | 0.6 J/K/mol
6.71 K, Crystal 2 | 0.26 J/K/mol
6.88 K, Crystal 2 | 0.73 J/K/mol
7 K, Crystal 2 | 0.905 J/K/mol
7.21 K, Crystal 2 | 0.74 J/K/mol
7.25 K, Crystal 2 | 1.59 J/K/mol
7.46 K, Crystal 2 | 0.83 J/K/mol
7.65 K, Crystal 2 | 2.56 J/K/mol
7.66 K, Crystal 2 | 0.96 J/K/mol
7.81 K, Crystal 2 | 1.14 J/K/mol
7.85 K, Crystal 2 | 0.98 J/K/mol
7.94 K, Crystal 2 | 1.38 J/K/mol
8 K, Crystal 2 | 3.8 J/K/mol and 2.02 J/K/mol
8.05 K, Crystal 2 | 1.67 J/K/mol
8.17 K, Crystal 2 | 2 J/K/mol
8.29 K, Crystal 2 | 2.32 J/K/mol
8.32 K, Crystal 2 | 6.21 J/K/mol
8.47 K, Crystal 2 | 1.8 J/K/mol
8.62 K, Crystal 2 | 3.37 J/K/mol
8.66 K, Crystal 2 | 6.33 J/K/mol
8.71 K, Crystal 2 | 5.19 J/K/mol and 7.23 J/K/mol
8.98 K, Crystal 2 | 3.72 J/K/mol
9.28 K, Crystal 1 | 4.54 J/K/mol
9.32 K, Crystal 1 | 4.26 J/K/mol
9.33 K, Crystal 1 | 3.86 J/K/mol
9.95 K, Crystal 1 | 4.26 J/K/mol
10 K, Crystal 1 | 4.27 J/K/mol
10.45 K, Crystal 1 | 4.03 J/K/mol
10.5 K, Crystal 1 | 4.18 J/K/mol
10.76 K, Crystal 1 | 4.31 J/K/mol
11.38 K, Crystal 1 | 4.5 J/K/mol
11.87 K, Crystal 1 | 4.28 J/K/mol
12.04 K, Crystal 1 | 4.33 J/K/mol
12.41 K, Crystal 1 | 4.39 J/K/mol
12.96 K, Crystal 1 | 4.32 J/K/mol
13.36 K, Crystal 1 | 4.4 J/K/mol
13.69 K, Crystal 1 | 4.41 J/K/mol
13.73 K, Crystal 1 | 4.37 J/K/mol
14.57 K, Crystal 1 | 4.32 J/K/mol
14.84 K, Crystal 1 | 4.36 J/K/mol
15 K, Crystal 1 | 4.19 J/K/mol
15.02 K, Crystal 1 | 4.19 J/K/mol
15.35 K, Crystal 1 | 4.45 J/K/mol
16.08 K, Crystal 1 | 4.3 J/K/mol
16.27 K, Crystal 1 | 4.22 J/K/mol
16.99 K, Crystal 1 | 4.37 J/K/mol
17.59 K, Crystal 1 | 4.22 J/K/mol
17.64 K, Crystal 1 | 4.2 J/K/mol
18.61 K, Crystal 1 | 4.3 J/K/mol
18.8 K, Crystal 1 | 4.15 J/K/mol
19.9 K, Crystal 1 | 4.28 J/K/mol
20 K, Crystal 1 | 4.12 J/K/mol
20.2 K, Crystal 1 | 4.24 J/K/mol
20.34 K, Crystal 1 | 4.12 J/K/mol
20.92 K, Crystal 1 | 4.12 J/K/mol
21.76 K, Crystal 1 | 4.2 J/K/mol
21.88 K, Crystal 1 | 4.24 J/K/mol
22.65 K, Crystal 1 | 4.13 J/K/mol
23.29 K, Crystal 1 | 4.19 J/K/mol
24.79 K, Crystal 1 | 4.18 J/K/mol
24.8 K, Crystal 1 | 4.22 J/K/mol
25 K, Crystal 1 | 4.19 J/K/mol
26.22 K, Crystal 1 | 4.35 J/K/mol
26.96 K, Crystal 1 | 4.24 J/K/mol
27.5 K, Crystal 1 | 4.17 J/K/mol
28.68 K, Crystal 1 | 4.27 J/K/mol
29.17 K, Crystal 1 | 4.26 J/K/mol
29.76 K, Crystal 1 | 4.34 J/K/mol
30 K, Crystal 1 | 4.35 J/K/mol
31.39 K, Crystal 1 | 4.52 J/K/mol
31.42 K, Crystal 1 | 4.55 J/K/mol
33.59 K, Crystal 1 | 4.79 J/K/mol
34.14 K, Crystal 1 | 4.77 J/K/mol
35 K, Crystal 1 | 4.98 J/K/mol
35.82 K, Crystal 1 | 5.1 J/K/mol
36.43 K, Crystal 1 | 5.08 J/K/mol
38.1 K, Crystal 1 | 5.31 J/K/mol
38.48 K, Crystal 1 | 5.3 J/K/mol
40 K, Crystal 1 | 5.71 J/K/mol
40.31 K, Crystal 1 | 5.7 J/K/mol
40.44 K, Crystal 1 | 5.8 J/K/mol
42.02 K, Crystal 1 | 6.02 J/K/mol
42.79 K, Crystal 1 | 6.32 J/K/mol
43.71 K, Crystal 1 | 6.48 J/K/mol
45 K, Crystal 1 | 6.87 J/K/mol
45.17 K, Crystal 1 | 6.92 J/K/mol
45.43 K, Crystal 1 | 6.93 J/K/mol

From the NIST ThermoML archive (doi:10.1016/j.jct.2009.01.014)
